Patent US11351156B2, “Combination treatment of pancreatic cancer” (INSERM (Institut National de la Santé et de la Recherche …, priority 2017, dated 2022)
Where two headings read alike, the source gives them in different places.

Tests used:
[1] = test system: gemcitabine-resistant metastatic pancreatic cancer; conditions: gemcitabine-resistant metastatic pancreatic cancer patients, cited from earlier work
[2] = test system: Panc1 cells and human primary Akt2-amplified pancreatic tumour cell; conditions: cited from earlier work
[3] = test system: AZD6244-resistant tumours; conditions: added to AZD6244; cited from earlier work
[4] = test system: pAkt; assay: Western blot of Akt phosphorylation in serum-starved, inhibitor-pretreated, stimulated Capan-1 cells; type: cell-based, human; conditions: for pS473 and pT308Akt levels: Capan-1, after 10 min stimulation with serum
Experimental: Pancreatic cancer cell were cultured consistent conditions. Eight hours after plating of cells, they were serum-starved during 16 h, over-night. Cells were pre-treated with inhibitors or their accordingly diluted vehicle (DMSO) during 1 h, then stimulated or not for 10 min or 24 h with 2% FBS, for 10 min with […] EGF, 100 nM Insulin, 50 ng/ml IGF-1, 1 μM LPA, 30 ng/ml PDGF, 200 nM S1P, 1× amino acids or 2 g/l glucose.
Cells were harvested on ice, washed twice with cold PBS, collected, and frozen at −80° C.

[5] = test system: serum-induced phosphopeptides in Capan-1 cells; assay: SILAC phosphoproteomics of Capan-1 cells under PI3K inhibition; type: cell-based, human
Experimental: Light amino acid-labelled and heavy amino acid-labelled Capan-1 cells (respectively called thereafter “light” and “heavy” cells) were washed twice with phosphate buffer saline (PBS; SIGMA; D8537), trypsined (GE Healthcare; L11-002) and plated at a concentration of 2.5.10^6 cells in a 14.4 cm-diameter dish (Dutscher, 055063). After 48 h, cells were serum-starved during 16 h, over-night. Light and heavy cells were pre-treated respectively with inhibitors or their accordingly diluted vehicule (DMSO) during 1 h, then stimulated or not for 10 min or 24 h with 2% dialysed FBS. After 10 min and 24 h of FBS stimulation, heavy cells and light cells were maintained on ice, washed three times with cold PBS and lysed.
Cells were lysed on the plate with 2 mL of lysis buffer (Tris-HCl 100 mM-pH 7.8 (Sigma, T1503), SDS 1% (Sigma, L3771), EDTA 5 mM-pH7.8 (Euromedex, EU-0007-B), proteases and phosphatases inhibitors (Sigma) containing 1× cOmplete Roche proteases inhibitors cocktail (SIGMA, 04693132001), NaF 10 mM (Sigma, S1504), NaPPi 10 mM (Sigma, S6422) and Na3VO4 10 mM (Sigma, 450243)) during 30 min at 4° C. in dark. Cells were scraped, harvested and incubated 20 min at 57° C. To eliminate DNA-dependent viscosity, samples were sonicated (amplitude 40%, pulse 1 sec, interval 1 sec during 60 sec). Three other lysis buffers were also tested (Buffer 1: NH4HCO3 100 mM pH7.8, Urea 8M; Buffer 2: Tris-HCl 100 mM pH7.8, Urea 8M; Buffer 3/RIPA: Tris-HCl50 mM, NaCl 150 mM, Nonidet P-40 1% pH 7.8, SDS 0.1% (w/v)); the chosen buffer allowed the better extraction of phospho-tyrosine proteins as assessed by Western blotting with anti-pY (p-Tyr100) antibody (Cell Signaling Technology; 8954S) as compared to in gel 1-DE profile. Cell lysates were then cleared from insoluble fraction by centrifugation at 10,000×g for 15 min at 25° C., and protein concentration was measured by 2-D Quant kit (GE Healthcare, 80-6483-56). For each biological replicate, light and heavy lysates were mixed at a 1:1 ratio for a total amount of 6 mg.
Protein samples were reduced with 100 mM DTT (Sigma, D9163) for 35 min at 57° C. and then handled according to the FASP (Filter Aided Sample Preparation) digestion protocol using Amicon Ultra-15 Centrifugal Filter device (10 kDa cut-off, MILLIPORE, UFC901096). The 1st step consisted in the replacement of SDS by urea, then a dilution with UA buffer (Tris-HCl100 mM-pH 8.5, Urea 8M (Sigma, U5128)) and an alkylation with CAA solution (Tris-HCl 100 mM pH 8.5, Urea 8M, Chloroacetamide 50 mM (Sigma, CO267)). For optimization of trypsin efficiency, urea concentration was decreased at 200 mM with Ammonium Bicarbonate buffer (NH4HCO3 0.05M (SIGMA, 09830) and 10 mM phosphatase inhibitors as previously used in lysis buffer). In a 2nd step, Trypsin (Promega, V5117) digestion was performed at 1:50 (w/w) trypsin:protein ratio overnight at 37° C. on the Amicon Ultra-15 Centrifugal Filter. Tryptic peptides were acidified with 1% trifluoroacetic acid (TFA—Sigma, T6508), cleared at 5,000 rpm for 15 minutes at 15° C., and desalted using C18 Sep-Pak plus cartridges (Waters, WAT043395, 500 mg sorbent). Resin was conditioned with 15 mL in 80% Acetonitrile (ACN—Sigma, 34888) then equilibrated with 15 mL in 0.1% TFA. After the loading step, sample was washed with 15 mL in 0.1% TFA, and the elution was performed with 4 mL in 80% ACN, 0.1% TFA). Eluted peptides were lyophilized with a speed-vacuum over night.
Protocol for the enrichment with TiO2 beads is based on Larsen et al., [45] and Jensen et al.. […]

[6] = test system: KPC pancreatic tumour; conditions: cited from earlier work
[7] = test system: primary patient-derived PDAC cells; conditions: mouse, in vivo; cited from earlier work
[8] = test system: BxPC-3 cancer cells xenografts; conditions: given after establishment of xenografts; cited from earlier work
[9] = test system: pancreatic cancer; conditions: standard of line chemotherapy; cited from earlier work
[10] = test system: KPC mouse model that rapidly develops PDAC; conditions: cited from earlier work; for tumour progression / tumour size: 12-week old KPC mice, 7 day-treated; for murine lethality / survival: treatment started at 8 weeks of age

Compound: CO[C@H]1C[C@@H]2CC[C@@H](C)[C@@](O)(O2)C(=O)C(=O)N2CCCC[C@H]2C(=O)O[C@H]([C@H](C)C[C@@H]2CC[C@@H](OCCO)[C@H](OC)C2)CC(=O)[C@H](C)/C=C(\C)[C@@H](O)[C@@H](OC)C(=O)[C@H](C)C[C@H](C)/C=C/C=C/C=C/1C [RAD001]
- clinical / therapeutic activity [1]: only a minimal clinical action
- tolerability [1]: well tolerated
- clinical / therapeutic activity ([1]; listed as Everolimus): failed to demonstrate the therapeutic activity

Compound: Cn1c(=O)n(-c2ccc(C(C)(C)C#N)cc2)c2c3cc(-c4cnc5ccccc5c4)ccc3ncc21 [NVP-BEZ235]
- combination effect with panobinostat [2]: additive effect
- tumour cell growth [2]: reduced
- prevention of resistance to AZD6244 [3]: able to prevent this process

Compound: Cc1cc(C(C)Nc2ccccc2)c2nc(N3CCOCC3)cc(=O)n2c1 (stereo not shown) [TGX-221]
- pS473 and pT308Akt levels [4]: significantly inhibited
- number of serum-induced phosphopeptides changed ([5]; Capan-1, 10 min): 436
- number of serum-induced phosphopeptides changed ([5]; Capan-1, 24 h): 437

Compound: CO[C@H]1C[C@@H]2CC[C@@H](C)[C@@](O)(O2)C(=O)C(=O)N2CCCC[C@H]2C(=O)O[C@H]([C@H](C)C[C@@H]2CC[C@@H](OC(=O)C(C)(CO)CO)[C@H](OC)C2)CC(=O)[C@H](C)/C=C(\C)[C@@H](O)[C@@H](OC)C(=O)[C@H](C)C[C@H](C)/C=C/C=C/C=C/1C [Temsirolimus]
- clinical / therapeutic activity [1]: failed to demonstrate the therapeutic activity

Compound: CS(=O)(=O)N1CCN(Cc2cc3nc(-c4cccc5[nH]ncc45)nc(N4CCOCC4)c3s2)CC1 [GDC-0941]
- disease status ([6]; 14 days after established tumours detection): stable disease
- pancreatic tumour growth ([6]; KPC mice, 14 days): efficiently prevent
- response of orthotopic patient-derived PDAC [7]: responded the same way
- tumour volumes [8]: did not impair tumour volumes

Compound: Cc1nc(NC(=O)N2CCC[C@H]2C(N)=O)sc1-c1csc(C(C)(C)C)n1 [A66]
- pS473 and pT308Akt levels [4]: significantly inhibited
- RTK-driven (EGF) short-term phosphorylation of Akt ([4]; EGF stimulation): inhibited
- re-activation of pAkt upon long-term PI3K inhibition ([4]; serum stimulation, time course up to 48 h): prevents this re-activation of pAkt
- number of serum-induced phosphopeptides changed ([5]; Capan-1, 10 min): 449
- number of serum-induced phosphopeptides changed ([5]; Capan-1, 24 h): 404

Compound: Nc1ccn([C@@H]2O[C@H](CO)[C@@H](O)C2(F)F)c(=O)n1 [gemcitabine]
- increase of patient survival [9]: only a few weeks

Compound: O=C1NC(=O)/C(=C/c2ccc(-c3ccc(F)cc3O)o2)S1 [AS-252424]
- pS473 and pT308Akt levels [4]: significantly inhibited
- GPCR-driven (LPA) short-term phosphorylation of Akt ([4]; LPA stimulation): inhibited
- number of serum-induced phosphopeptides changed ([5]; Capan-1, 10 min): 504
- number of serum-induced phosphopeptides changed ([5]; Capan-1, 24 h): 404

Compound: CO[C@H]1C[C@@H]2CC[C@@H](C)[C@@](O)(O2)C(=O)C(=O)N2CCCC[C@H]2C(=O)O[C@H]([C@H](C)C[C@@H]2CC[C@@H](O)[C@H](OC)C2)CC(=O)[C@H](C)/C=C(\C)[C@@H](O)[C@@H](OC)C(=O)[C@H](C)C[C@H](C)/C=C/C=C/C=C/1C [Sirolimus]
- tolerability [1]: well tolerated

Compound: Cn1cnc2c(F)c(Nc3ccc(Br)cc3Cl)c(C(=O)NOCCO)cc21 [AZD6244]
- tumour progression / tumour size [10]: progressive disease
- murine lethality / survival [10]: nearly no effect

Compound: O=c1cc(N2CCOCC2)oc2c(-c3ccccc3)cccc12 [LY-294002]
- number of serum-induced phosphopeptides changed ([5]; Capan-1, 10 min): 427
- number of serum-induced phosphopeptides changed ([5]; Capan-1, 24 h): 258

Compound: Nc1cc(C(F)(F)F)c(-c2cc(N3CCOCC3)nc(N3CCOCC3)n2)cn1 [BKM120]
- tumour progression / tumour size [10]: progressive disease
- murine lethality / survival [10]: nearly no effect
